Here are results for 86 molecules from a melting point compilation (Tetko et al.; mined from patent text by program, amines drawn as free bases though some values may be those of a salt).

Regarding `CC1=CC(C)(C)N2C(=O)C(=O)c3cc(C)cc1c32`, the melting point – broadly, the temperature of the solid-liquid transition – was 157 to 161 °C.

For `Cc1cc(C(=O)N2Cc3ccc(C(=O)NCc4cccnc4)n3Cc3ccccc32)ccc1-c1ccccc1`, the melting point was 108 to 112 °C.

The molecule `COc1cccc(Cn2nc(C(=O)O)c3c2-c2ccc(OCc4cncnc4)cc2CC3)c1` had a melting point of 220 to 221 °C.

In turn, `Ic1ccc(SSc2ccc(I)c3ccccc23)c2ccccc12` gave a melting point of 129 to 131 °C.

Regarding `COc1cccc(NC(=O)NC2CN(C3CCCCC3)c3ccccc3N(CC(=O)C(C)(C)C)C2=O)c1` (stereo unspecified), the melting point is 234 to 235 °C.

The molecule `Cc1[nH]c2ccc(S(=O)(=O)c3ccccc3)cc2c1CCNC(=O)OC(C)(C)C` yielded a melting point of 210 to 213 °C.

Molecule `Cn1ncnc1COc1nc2c(cc1-c1cccc(F)c1)nnn2-c1ccccc1F` displayed a melting point of 143 to 145 °C.

Molecule `COC(=O)Nc1ccc(C2=NNC(=O)CC2C)cc1` (stereo unspecified) returned a melting point of 228 to 229 °C.

`CC(C)=CCc1c(O)n2c3c(nc2n(Cc2ccccc2)c1=O)N(C)CN(C)C3=O`: the melting point is 153 to 154 °C.

In turn, `Cc1ccc(-c2c(C)c(NC(=O)CC(C)(C)C)c(C)c3c2OCC3c2ccc(C(C)C)cc2)nc1` (stereo unspecified) displayed a melting point of 228 to 229 °C.

The molecule `COc1ccnc(CCc2nc3cc(Br)cnc3[nH]2)c1` returned a melting point of 207 to 209 °C.

Regarding `Cc1nc(C)c(C=O)c(N)n1`, the melting point is 148 to 156 °C.

Turning to `Brc1ccnc2cc3c(cc12)OCO3`, the melting point was 147 to 149 °C.

For the molecule `O=C(Nc1cc(C(F)(F)F)cc(C(F)(F)F)c1)c1cc(Cl)cnc1O`, the melting point was over 270 °C.

On to `C[C@@H](Nc1c(NCc2ccc(F)cc2)c(=O)c1=O)C(C)(C)C`, for which the melting point lay within 289 to 291 °C.

On to `CCCCCCCCOC(=O)c1cc(=O)c2c3c(ccc2o1)-c1ccc(Cl)cc1C(C)(C)O3`, for which the melting point was in the range of 111 to 113 °C.

`CC(C)(O)c1onc(-c2ccccc2Cl)c1C(=O)c1nnn(Cc2cc(F)cc(C(F)(F)F)c2)c1-c1cccnc1`: the melting point was determined as 180 °C.

For the molecule `COC(=O)c1cc(-c2ccc3occc3c2)n[nH]c1=O`, the melting point was 222 to 225 °C.

`CC12CCC(C(=NO)C1=NN)C(C)(C)O2` (stereo unspecified) returned a melting point of 138 to 142 °C.

`O=C(O)c1cc(Cl)ccc1COc1ccccc1` came in with a melting point of 149 to 155 °C.

Take `CCONC(CC)=C1C(=O)CC(CCSc2ccc(Cl)cc2)CC1=O` (stereo unspecified): the melting point is 42 to 43 °C.

`CC(C)=NNC(=O)NCCCN(C)C`: the melting point lay within 49 to 53 °C.

On to `CCS(=O)(=O)Nc1cc(Br)cc(Cc2c[nH]cn2)c1C`, for which the melting point lay within 202 to 204 °C.

Turning to `Cc1cccc(N2CCN(CCc3c(C)nc4cc(C)ccn4c3=O)CC2)c1`, the melting point is 96 to 97 °C.

The molecule `COc1ccc(S(=O)(=O)c2cnc(C)nc2Cc2c(C)cc(C)cc2C)cc1` showed a melting point of 150 to 152 °C.

The molecule `Cc1nc2sccn2c(=O)c1Br` returned a melting point of 127 to 129 °C.

On to `Cc1cc(C(=O)N2Cc3ccccc3Cc3ccccc32)ccc1N`, for which the melting point lay within 203 to 204 °C.

For `Cc1c(F)c(F)c(N)c2c(=O)c(C(=O)O)cn(-c3nc(N)c(F)cc3F)c12`, the melting point was determined as 250 °C.

For the molecule `CC(C)(C)NCC(O)COc1cccc(C#N)c1` (stereo unspecified), the melting point was 108 to 110 °C.

As for `Cc1ccc(C(=O)NCCN(C)C)cc1-n1c(C)cc(OCc2ccc(F)cc2CNC(=O)Nc2cc(C(C)(C)C)nn2-c2ccc(Cl)c(O)c2)c(Cl)c1=O`, the melting point lay in the range of 177 to 178 °C.

`Cc1c(NC(=O)c2ccc(-c3ccc(OC(F)(F)F)cc3)cc2)ccc2cc(CN3CCCC3)cnc12`: the melting point was in the range of 200 to 202 °C.

Molecule `Cc1cc(NC(=S)NC(=O)c2ccccc2Cl)ccc1-n1cccc1` gave a melting point of 134 to 136 °C.

In the case of `C=CC(=O)OCCc1cc(=O)c(OCc2ccccc2)c(C(=O)c2ccc(Cc3ccc(F)cc3)o2)o1`, the melting point lay in the range of 104 to 106 °C.

In the case of `COc1ccc2[nH]c(C=Cc3ccccc3Cl)cc2c1`, the melting point was 135 to 137 °C.

With `O=C(OC1CCCCC1=O)c1ccccc1` (stereo unspecified), the melting point was in the range of 81 to 83 °C.

`COP(=O)(OC)C1OC(=O)c2ccccc21` (stereo unspecified): the melting point is 95 to 96.5 °C.

`CC[N+]1([O-])CCC(O)(c2cc(F)cc(Cl)c2)C1` (stereo unspecified) displayed a melting point of 158 to 160 °C.

`O=C1c2c(Cl)cccc2-n2cnc(-c3noc(CN(C4CCCCC4)C4CCCCC4)n3)c2[C@@H]2CCN12` gave a melting point of 155 to 185 °C.

Turning to `COc1cccc2c1CN(Cc1c[nH]c3ccccc13)C2`, the melting point lay within 176 to 179 °C.

As to `CN1CCN(c2ccc(C(=O)NC3(C(=O)NCC#N)CCCCC3)cc2)CC1`, the melting point was 218 to 220 °C.

Regarding `CCON1CCC2(CC1)NC(=O)C(c1c(C)cc(C)cc1C)=C2O`, the melting point is over 250 °C.

In turn, `CC(C)OCCNC(=O)c1n[nH]cc1NC(=O)c1ccccn1` returned a melting point of 163 to 164 °C.

Turning to `CC1CCCN(c2cc3nc(C(C)(C)C)sc3cc2N)C1` (stereo unspecified), the melting point is 108 to 112 °C.

The molecule `CCCc1c(OCCCSc2nnc(NC(=O)CC(=O)O)s2)ccc(C(C)=O)c1O` came in with a melting point of 172 to 174 °C.

Molecule `CCOCCN(CC)c1ccc(-c2ccc3c(c2)C=C(C(=O)Nc2ccc(CN(C)C4CCOCC4)cc2)CCS3(=O)=O)cc1` registered a melting point of 194 to 197 °C.

The molecule `COC(=O)Cc1ccc(OCCNC(=O)C2Cc3ccccc3N2S(=O)(=O)c2ccc(-c3cccc(C(F)(F)F)c3)c(C)c2)cc1` (stereo unspecified) displayed a melting point of 60 °C.

Molecule `C=C1CC2C(CCC3(C)C2CCC3(OC(C)=O)C(C)=O)C2(C)CCC(=O)C=C12` (stereo unspecified) registered a melting point of 234 to 236 °C.

As for `N#Cc1cc(-c2ccccc2)[nH]c1Sc1ccncc1`, the melting point fell in the range of 172 to 174 °C.

Molecule `NC(=O)C1=NN(c2cccc(COCC(F)(F)C(F)(F)F)c2)C(c2ccccc2)N1` (stereo unspecified) showed a melting point of 146 to 148 °C.

With `Nc1ncc(-c2ccncc2)cn1`, the melting point is 180 to 182 °C.

Molecule `Cc1ccc(C[C@@H]2CN(C(=O)/C=C/c3ccccc3)CCN2C(=O)c2cc(C(F)(F)F)cc(C(F)(F)F)c2)cc1C` registered a melting point of 87 to 91 °C.

Turning to `CCn1c(=O)c2c(nc(/C=C/c3ccc(OC(=O)c4ccccc4)c(OC)c3)n2C)n(CC)c1=O`, the melting point was 234 to 236 °C.

As for `CC(C)C[C@@H](C(=O)O)N(C)C(=O)OCc1ccccc1`, the melting point was in the range of 69 to 71 °C.

Turning to `CCN(CC)C(=S)Oc1cccnc1F`, the melting point was in the range of 52 to 54 °C.

Consider `CC(=O)c1cc(F)c(OCCOc2ccc3ccccc3c2)c(F)c1`, for which the melting point is 108 to 110 °C.

Turning to `COC(=O)C1c2ccc(OCc3ccccc3)cc2CCN1CC(=O)N1CCC(c2ccccc2)CC1` (stereo unspecified), the melting point is 112 to 114 °C.

Turning to `CC(C)(CI)c1cc(Cl)nnc1Cl`, the melting point fell in the range of 104 to 106 °C.

Molecule `CCOC(=O)C(C#N)=CNNCC(=Cc1ccccc1)c1ccccc1` came in with a melting point of 129 to 133 °C.

For the molecule `COC(=O)CCC(=O)c1cc2c(cc1Cl)CC(NC(=O)OC)CC2` (stereo unspecified), the melting point lay in the range of 86 to 89 °C.

Regarding `CC(C)(C)c1cccc(S(=O)(=O)n2c(Cc3ccc(CNS(C)(=O)=O)cc3)cc3cc(C(F)(F)F)ccc32)c1`, the melting point is 96 °C.

As to `CC(C)(C)OC(=O)c1cc(OCc2ccccc2)c(C(=O)c2c(OCc3ccccc3)cccc2C(=O)O)c(OCc2ccccc2)c1`, the melting point lay within 151 to 156 °C.

`CCNC(=O)NCCNc1nc(-c2ccc(F)cc2C)c2ccc(=O)n(-c3c(F)cccc3F)c2n1`: the melting point fell in the range of 130 to 133 °C.

`COc1ccc(-c2cc(CO)c(C)o2)cc1`: the melting point lay in the range of 62 to 64 °C.

`CC1(C(=O)O)c2ccccc2Oc2ccccc21` returned a melting point of 87 to 88 °C.

With `CN(C)C=CC(=O)c1cccc(Cl)c1`, the melting point is 68 to 70 °C.

`CCCOc1ccccc1-c1nc(NCC)cc(=O)[nH]1`: the melting point fell in the range of 187 to 188 °C.

Consider `Cc1cnc(CCCCn2cnc(NC(N)=NCC(F)(F)F)n2)nc1O`, for which the melting point was 235 to 237 °C.

In turn, `Cc1nc(C(=O)Nc2cccc(Oc3ccc4nc(NC(=O)C5CC5)cn4n3)c2)c(C)o1` registered a melting point of 224 °C.

As to `O=C1CCC2(c3ccc(-c4ccc(OC(F)(F)F)cc4)cc3)OCC(c3ccccc3)N12` (stereo unspecified), the melting point stood at 104 °C.

With `COc1cc(C=CC=C2OC(=O)NC2=O)ccc1OCc1coc(-c2ccccc2)n1`, the melting point is 227 to 228 °C.

In turn, `CO[C@H]1CCN(C(=O)c2cc(-c3ccccc3)c(=O)n3c2-c2sccc2C3)C1` displayed a melting point of 159 to 162 °C.

In the case of `CCOC(=O)c1cnn2c1nc(N1CCN(C)CC1)c1cnc3c(cnn3CC)c12`, the melting point lay within 111 to 113 °C.

`O=C(O)COc1ccc(CN2C(=O)C3(COc4cc5c(cc43)CCO5)c3ccccc32)cc1` (stereo unspecified) came in with a melting point of 265 to 266 °C.

On to `CC(=O)Nc1nc(CS(=O)(=O)c2ccc(N)cc2)cs1`, for which the melting point was in the range of 135 to 137 °C.

The molecule `N=C(NCl)c1ccsc1` came in with a melting point of 96 to 98 °C.

For the molecule `O=C1CCN(c2ccccc2)N1CN1C(=O)c2ccccc2S1(=O)=O`, the melting point was in the range of 209 to 213 °C.

`Cc1cc(-c2nc3cccnn3c2-c2ccnc(NC(=O)Nc3ccc(C#N)cc3)c2)ccc1F` registered a melting point of 204 to 206 °C.

Regarding `N#CCCOc1ccc(OCCC#N)cc1`, the melting point fell in the range of 138 to 140 °C.

Consider `Cc1c(Cl)cc2nc(Cl)c(Cl)nc2c1[N+](=O)[O-]`, for which the melting point fell in the range of 121 to 122 °C.

On to `COc1ccc(CN(C)CCCCc2ccc(NC(=O)c3cccc4c(=O)c5cccc(OC)c5[nH]c34)cc2)cc1OC`, for which the melting point was found to be 157 °C.

With `COC(=O)C(Sc1ccc(C)cc1)(C1=NCCCS1)[N+](=O)[O-]` (stereo unspecified), the melting point is 85 to 89 °C.

For `CCOC(=O)c1cn(CC)c2nc(N3CCN(CCO)CC3)ncc2c1=O`, the melting point amounted to 172 °C.

The molecule `COc1ccc(-c2[nH]nc3c2C(=O)c2c(NC(=O)CN4CCN(CCN)CC4)cccc2-3)cc1` gave a melting point of over 300 °C.

`CC(CCc1ccc(N(C)C)cc1)NCC(O)c1sccc1C(N)=O` (stereo unspecified) had a melting point of 118 to 121 °C.

With `Cc1ccc(S(=O)(=O)NC(CCCCNC(=O)OCc2ccccc2)C(=O)O)cc1` (stereo unspecified), the melting point lay in the range of 120 to 121 °C.

Regarding `O=C(Cl)c1ccccc1SSc1ccccc1C(=O)Cl`, the melting point is 145 to 148 °C.
